# Data reported in patent US6692927B2, “Bax degradation involvement in tumor survival and progression” (University of South Florida, priority 2000, dated 2004).
# Where a SMILES comes first, the peptide text is derived from it. [ ]: non-standard residue; d: D form. The star is where a group is joined. Nva = CCC[C@H](N)C(=O)O; Cbz = O=C(OCc1ccccc1)*
# Tests used:
# [1] = system: SV40-transformed (VA-13) cells; assay: PARP cleavage, cytochrome c release and Bax accumulation in SV40-transformed fibroblasts; assay type: cell-based, human
# Description: (§1) Proteasome inhibitors activate Bax- and cytochrome c-dependent apoptosis pathway preferentially in transformed human fibroblasts. Normal human fibroblasts are more resistant to proteasome inhibitor-induced apoptosis than transformed and cancer cells (An et al., in press). This is probably due to inability of the normal cells to accumulate Bax protein in response to proteasome inhibition, and consequently failure to release cytochrome c. To test this hypothesis, both SV40-transformed and normal WI-38 cells were treated with 50 microM LLnV for up to 24 hours, followed by measurement of PARP cleavage, cytochrome c release and Bax accumulation. […] In contrast, only after 24 hours treatment, low levels of p85/PARP fragment and cytosolic cytochrome c were detected in normal WI-38 cells (FIGS. 1, A, B, lanes 8-14). […] The levels of Bax/p21 were increased at as early as 4 hours and remained high afterwards. […] The level of another band of ˜47 kDa increased at 4 hours, further increased between 6 and 12 hours, and then decreased (FIG. 1C). The p70 and p47 bands can contain ubiquitinated forms of Bax since similar polypeptides were detected by antibodies to both Bax and ubiquitin (Li et al., 1999). […] Therefore, although unable to activate the Bax- and cytochrome c-dependent apoptotic pathway in response to a low concentration of a proteasome inhibitor, normal cells are capable of undergoing Bax- and cytochrome c-independent apoptosis in response to a proteasome inhibitor at higher concentrations.
# (§2) SV40-transformed (VA-13) and normal WI-38 cells were treated with 50 microM LLnV or DMSO (letter D) for up to 24 hours, followed by measurement of PARP cleavage (A), cytochrome c release (B) and Bax accumulation (C; also see FIG. 2). Panel D, exponentially grown VA-13 cells were pretreated with 50 microM LLnV or DMSO for 1 hour, washed with methionine-free medium, and then incubated for 30 minutes in methionine-free medium plus 50 microM LLnV (or DMSO). This was followed by replacing fresh methionine-free medium containing 150 microCi/ml of [^35S]-methionine, 10% dialyzed FBS and 50 microM LLnV (or DMSO). Cells were further incubated for 6 hours, followed by preparation of [^35S]-labeled protein lysates and Bax immunoprecipitates (6A7, PharMingen). The labeled Bax bands are indicated. […] Bax-alpha subcloned into pcDNA3 was used for coupled in vitro transcription/translation in the presence of [^35S]methionine. For Bax cleavage assay, the whole cell extracts were prepared. The [^35S]-labeled Bax (0.7 microl) was incubated with 50 microg protein in assay buffer (containing 50 microM LLM and no Ca^2+) for 4 hours at 37° C. Following incubation, the samples were subjected to SDS gel electrophoresis and autoradiography.
# [2] = system: human breast cancer (SK-BR-3, MDA-MB-468) cells; assay: cellular detachment of breast cancer cells; assay type: cell-based; settings: breast cancer versus normal (MCF-10A) cells
# Method: (§3) Proteasome inhibitors selectively induce apoptosis in human breast cancer, but not normal, cells. […] Cells of both human breast cancer lines became detached in a lactacystin-concentration-dependent manner (FIG. 3). No detachment was induced in the normal human breast cells MCF-10A after treatment with lactacystin for 48 hours (FIG. 3) or even 72 hours. Proteasome inhibition-induced detachment of breast cancer cells is due to apoptosis (An et al., in press).
# [3] = system: normal WI-38 cells; assay: PARP cleavage, cytochrome c release, Bax and p21 in normal fibroblasts; assay type: cell-based, human; settings: 50 microM LLnV
# Description: as §1, §2
# [4] = system: normal human breast cells MCF-10A; assay: cellular detachment of normal breast cells; assay type: cell-based; settings: 48 hours or even 72 hours
# Method: as §3
SMILES,earliest time of increased Bax/p21 levels ([1]; 50 microM LLnV) [h],"Bax levels ([1]; 50 microM LLnV, prior to release of cytochrome c)","time at which cleavage of PARP and release of cytochrome c were detected ([1]; 50 microM LLnV, up to 24 hours) [h]",Bax accumulation and apoptosis (PARP cleavage) ([1]; LLnV treatment (FIG. 4B)),cellular detachment [2],time at which low levels of p85/PARP fragment and cytosolic cytochrome c were detected [3] [h],cellular detachment [4]
CCC[C@@H](C=O)NC(=O)[C@H](CC(C)C)NC(=O)[C@H](CC(C)C)NC(=O)OCc1ccccc1 [LLnV] (Cbz-Leu-Leu-[Nva]-aldehyde),4,dramatically increased,8,rapidly accumulated Bax protein and subsequently induced apoptosis,selectively induced cellular detachment,24,
CC(=O)N[C@@H](CSC(=O)[C@]1([C@@H](O)C(C)C)NC(=O)[C@H](C)[C@@H]1O)C(=O)O [lactacystin],,,,,selectively induced cellular detachment,,No detachment
